The values that follow come from ChEMBL document CHEMBL1124519 (J Med Chem, 1989).

The species entered for one series is Homo sapiens. Nature of the series: Half-life period obtained from linear regression of metabolite concentration in Human plasma containing 100 mM phosphate, at pH 7.4. Type of series: ADME.
Series [1] can be described thus: Half-life period obtained from linear regression of metabolite concentration in aqueous buffer of pH 7.4 at 37 degrees Celsius in 100 mM phosphate buffer. Type of series: ADME.
Another series has as its system L1210. Nature of the series: The cytotoxicity (LC99) was evaluated in vitro against L1210 cells obtained from cultured mice. Type of series: functional, Mus musculus.
Series [2] in a line: Half-life period obtained from linear regression of metabolite concentration in aqueous buffer of pH 7.4 at 37 degrees Celsius in 200 mM phosphate buffer. Type of series: ADME.

For the molecule `O=CCCOP(=O)(NCCCl)NCCCl.O=P1(NCCCl)OCCC(O)N1CCCl`, the T1/2 is reported as 10 min in the series listed under Homo sapiens and 50 min in series [1]. Also, in the series on L1210, the LC99 came out at 12.6 µM.
Turning to `O=P(O)(NCCCl)NCCCl` [PALIFOSFAMIDE], the T1/2 in series [2] turned out to be 61 min. The molecule further came in with an LC99 in the series on L1210 of 70 µM.
